According to patent publication US20230382924A1, “MODULATORS OF CYSTIC FIBROSIS TRANSMEMBRANE CONDUCTANCE REGULATOR” (VERTEX PHARMACEUTICALS INCORPORATED, priority 2020, published 2023):
Where two headings read alike, the source gives them in different places.

Target: CFTR (Homo sapiens, UniProt P13569)
Experiment: Membrane Potential Dye, Enteroid Assay A
Format: cell-based
Conditions: for EC50: read-out: Ent. A EC50
In short: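 Signal is reported as % Activity relative to a triple CFTR modulator control (3 μM + 3 μM + 300 nM acute). Read-out: membrane potential fluorescence (20 μM methyl oxonol) monitored for 15 min after chloride-free stimulation. Dye loading took 25 min at room temperature in Bath 1 buffer containing CaCC blockers.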

Sequence of CFTR (P13569 with tags, fused parts or gaps DEL508-508): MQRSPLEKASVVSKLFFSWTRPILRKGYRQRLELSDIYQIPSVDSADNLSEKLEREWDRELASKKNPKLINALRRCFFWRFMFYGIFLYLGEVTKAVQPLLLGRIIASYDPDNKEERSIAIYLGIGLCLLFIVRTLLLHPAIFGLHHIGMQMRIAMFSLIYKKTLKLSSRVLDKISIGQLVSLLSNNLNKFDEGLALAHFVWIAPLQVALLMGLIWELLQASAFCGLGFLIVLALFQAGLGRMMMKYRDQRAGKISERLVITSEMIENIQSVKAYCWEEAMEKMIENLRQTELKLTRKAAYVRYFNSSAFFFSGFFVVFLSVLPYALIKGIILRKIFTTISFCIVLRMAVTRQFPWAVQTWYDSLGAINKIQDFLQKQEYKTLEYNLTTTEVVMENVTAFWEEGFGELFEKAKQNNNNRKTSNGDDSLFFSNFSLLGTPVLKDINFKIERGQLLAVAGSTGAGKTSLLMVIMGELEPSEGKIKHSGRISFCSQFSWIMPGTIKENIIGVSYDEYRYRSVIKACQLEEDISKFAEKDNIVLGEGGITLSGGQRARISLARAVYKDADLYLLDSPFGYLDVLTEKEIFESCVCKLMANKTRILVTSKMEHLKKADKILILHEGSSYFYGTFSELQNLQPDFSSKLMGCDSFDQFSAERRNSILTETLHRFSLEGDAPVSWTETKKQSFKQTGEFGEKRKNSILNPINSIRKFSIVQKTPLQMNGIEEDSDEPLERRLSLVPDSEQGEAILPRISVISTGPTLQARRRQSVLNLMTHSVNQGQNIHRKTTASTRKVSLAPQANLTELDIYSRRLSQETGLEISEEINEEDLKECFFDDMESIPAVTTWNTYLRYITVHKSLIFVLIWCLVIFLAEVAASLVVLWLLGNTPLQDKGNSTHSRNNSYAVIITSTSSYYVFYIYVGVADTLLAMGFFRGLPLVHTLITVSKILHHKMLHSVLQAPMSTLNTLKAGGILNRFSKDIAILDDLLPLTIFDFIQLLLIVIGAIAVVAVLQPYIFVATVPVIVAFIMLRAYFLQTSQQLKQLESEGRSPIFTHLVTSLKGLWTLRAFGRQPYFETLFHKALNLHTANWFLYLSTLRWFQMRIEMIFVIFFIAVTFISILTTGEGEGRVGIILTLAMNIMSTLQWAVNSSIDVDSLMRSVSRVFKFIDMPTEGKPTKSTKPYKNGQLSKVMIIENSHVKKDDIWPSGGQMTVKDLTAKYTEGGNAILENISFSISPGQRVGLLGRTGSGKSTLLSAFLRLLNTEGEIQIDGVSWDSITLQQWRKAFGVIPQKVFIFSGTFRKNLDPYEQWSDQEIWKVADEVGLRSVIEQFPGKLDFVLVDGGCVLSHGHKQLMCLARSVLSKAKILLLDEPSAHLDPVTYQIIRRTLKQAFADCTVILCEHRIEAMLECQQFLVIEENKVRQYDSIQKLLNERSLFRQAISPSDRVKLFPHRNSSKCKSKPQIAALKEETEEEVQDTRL

Cc1cccc(C)c1-c1cc2nc(n1)NS(=O)(=O)c1cccc(c1)C(=O)NCC(c1ccc(CC3(C(F)(F)F)CC3)cc1)O2 (stereo not shown) [Compound 147]
Ent. A Max Activity (Table 9): +++ (+++ is >60%)
EC50 (Table 9): < 1000 nM

Cc1cccc(C)c1-c1cc2nc(n1)NS(=O)(=O)c1cccc(c1)C(=O)NC[C@H](c1ccc(C(F)(F)F)cc1)O2 (stereo in doubt) [Compound 402]
Ent. A Max Activity (Table 8): + (+ is <30%)
EC50 (Table 8): 3000 to 30000 nM

COc1ccc2c(c1)c(C(=O)N1CCC3(CC1)CNC(=O)c1cccc(c1)S(=O)(=O)Nc1nc(cc(-c4c(C)cccc4C)n1)OC3)c(C)n2C1CC1 [Compound 451]
Ent. A Max Activity (Enteroid Assay A): ++ (++ is 30-60%)
EC50 (Enteroid Assay A): 3000 to 30000 nM

CC(C)C[C@@H]1COc2cc(-c3ncccn3)nc(n2)NS(=O)(=O)c2cccc(c2)C(=O)N1 [Compound 178]
Ent. A Max Activity (Table 9): + (+ is <30%)

Cc1cccc(C)c1-c1cc2nc(n1)NS(=O)(=O)c1cccc(c1)C(=O)NC(C(C)C)CO2 (stereo not shown) [Compound 355]
Ent. A Max Activity (Enteroid Assay A): ++ (++ is 30-60%)
EC50 (Enteroid Assay A): 1000 to 3000 nM

Cc1cccc(C)c1-c1cc2nc(n1)NS(=O)(=O)c1cccc(c1)C(=O)NCC(c1ccc(C3CCC3)cc1)O2 (single isomer, unassigned) [Compound 13, 10-(4-Cyclobutylphenyl)-6-(2,6-dimethylphenyl)-2,2-dioxo-9-oxa-2λ^6-thia-3,5,12,19-tetrazatricyclo[12.3.1.14,8]nonadeca-1(18),4(19),5,7,14,16-hexaen-13-one]
Ent. A Max Activity (Table 9): + (+ is <30%)
EC50 (Table 9): < 1000 nM

CC(C)C[C@@H]1COc2cc(-c3ccccc3Oc3ccccc3)nc(n2)NS(=O)(=O)c2cccc(c2)C(=O)N1 [Compound 392]
Ent. A Max Activity (Table 9): ++ (++ is 30-60%)
EC50 (Table 9): < 1000 nM

Cc1cccc(C)c1-c1cc2nc(n1)NS(=O)(=O)c1cc(cc(C3CCOCC3)c1)C(=O)N[C@H](CC(C)C)CO2 [Compound 138]
Ent. A Max Activity (Table 8): + (+ is <30%)

Cc1cccc(C)c1-c1cc2nc(n1)NS(=O)(=O)c1cccc(c1)C(=O)NCC(C1CCN(C(=O)OC(C)(C)C)CC1)O2 (stereo not shown) [Compound 248]
Ent. A Max Activity (Table 8): +++ (+++ is >60%)
EC50 (Table 8): < 1000 nM

Cc1cc(C(F)(F)F)n(-c2cc3nc(n2)NS(=O)(=O)c2cccc(c2)C(=O)N[C@H](CC(C)C)CO3)n1 [Compound 109, (11R)-6-[3-methyl-5-(trifluoromethyl)-1H-pyrazol-1-yl]-11-(2-methylpropyl)-9-oxa-2λ^6-thia-3,5,12,19-tetraazatricyclo[12.3.1.14,8]nonadeca-1(17),4,6,8(19),14(18),15-hexaene-2,2,13-trione]
Ent. A Max Activity (Table 8): + (+ is <30%)
EC50 (Table 8): < 1000 nM

Cc1cccc(C)c1-c1cc2nc(n1)NS(=O)(=O)c1cccc(c1)C(=O)NC[C@@H](c1ccc(C3CC3)cc1)O2 [Compound 261]
Ent. A Max Activity (Table 9): ++ (++ is 30-60%)
EC50 (Table 9): 1000 to 3000 nM

Cc1cccc(C)c1-c1cc2nc(n1)NS(=O)(=O)c1cccc(c1)C(=O)N[C@@H](CC1(C(F)(F)F)CC1)CO2 [Compound 288]
Ent. A Max Activity (Table 8): +++ (+++ is >60%)
EC50 (Table 8): < 1000 nM

CCC(CC)[C@@H]1COc2cc(-c3c(C)cccc3C)nc(n2)NS(=O)(=O)c2cccc(c2)C(=O)N1 [Compound 386]
Ent. A Max Activity (Table 8): +++ (+++ is >60%)
EC50 (Table 8): < 1000 nM

CC(C)C[C@@H]1COc2cc(-c3ccccc3OCc3ccccc3)nc(n2)NS(=O)(=O)c2cccc(c2)C(=O)N1 [Compound 393]
Ent. A Max Activity (Table 9): +++ (+++ is >60%)
EC50 (Table 9): < 1000 nM

CCCCC1(CCCC)COc2cc(-c3c(C)cccc3C)nc(n2)NS(=O)(=O)c2cccc(c2)C(=O)N1 [Compound 185]
Ent. A Max Activity (Table 9): +++ (+++ is >60%)
EC50 (Table 9): < 1000 nM

Cc1cccc(C)c1-c1cc2nc(n1)NS(=O)(=O)c1ccccc1C(=O)N[C@H](C)[C@@H](c1ccc(C(C)(C)C)cc1)O2 [Compound 282]
Ent. A Max Activity (Table 9): + (+ is <30%)

Cc1cccc(C)c1-c1cc2nc(n1)NS(=O)(=O)c1cccc(c1)C(=O)NCC1(CCN(CCOCc3ccccc3)CC1)CO2 [Compound 445]
Ent. A Max Activity (Enteroid Assay A): ++ (++ is 30-60%)
EC50 (Enteroid Assay A): 3000 to 30000 nM

CCC1CC=C(c2cc3nc(n2)NS(=O)(=O)c2cccc(c2)C(=O)N[C@H](CC(C)C)CO3)CC1 (stereo partly shown) [Compound 322]
Ent. A Max Activity (Enteroid Assay A): ++ (++ is 30-60%)
EC50 (Enteroid Assay A): 1000 to 3000 nM

Cc1cccnc1-c1cc2nc(n1)NS(=O)(=O)c1cccc(c1)C(=O)N[C@H](CC(C)C)CO2 [Compound 108, (11R)-11-Isobutyl-6-(3-methyl-2-pyridyl)-2,2-dioxo-9-oxa-2λ^6-thia-3,5,12,19-tetrazatricyclo[12.3.1.14,8]nonadeca-1(18),4(19),5,7,14,16-hexaen-13-one]
Ent. A Max Activity (Table 9): ++ (++ is 30-60%)
EC50 (Table 9): 3000 to 30000 nM

Cc1cccc(C)c1-c1cc2nc(n1)NS(=O)(=O)c1cccc(c1)C(=O)NCC1(CCN(Cc3ccc(NC(=O)OC(C)(C)C)nc3)CC1)CO2 [Compound 433]
Ent. A Max Activity (Enteroid Assay A): ++ (++ is 30-60%)
EC50 (Enteroid Assay A): 3000 to 30000 nM

Cc1cccc(C)c1-c1cc2nc(n1)NS(=O)(=O)c1cccc(c1)C(=O)N[C@@H](CC(F)(F)F)CO2 (single isomer, unassigned) [Compound 93, 6-(2,6-dimethylphenyl)-11-(2,2,2-trifluoroethyl)-9-oxa-2λ^6-thia-3,5,12,19-tetraazatricyclo[12.3.1.14,8]nonadeca-1(17),4(19),5,7,14(18),15-hexaene-2,2,13-trione]
Ent. A Max Activity (Table 9): ++ (++ is 30-60%)
EC50 (Table 9): 3000 to 30000 nM

CC(C)C[C@@H]1COc2cc(C3CCCCO3)nc(n2)NS(=O)(=O)c2cccc(c2)C(=O)N1 (stereo partly shown) [Compound 313]
EC50 (Table 8): 3000 to 30000 nM

Cc1cccc(C)c1-c1cc2nc(n1)NS(=O)(=O)c1cccc(c1)C(=O)N[C@@H]1CN(C(C)C)CC[C@H]1O2 [Compound 373]
Ent. A Max Activity (Table 9): +++ (+++ is >60%)
EC50 (Table 9): 1000 to 3000 nM

CC(C)C[C@@H]1COc2cc(-c3ccccc3OCC3CC3)nc(n2)NS(=O)(=O)c2cccc(c2)C(=O)N1 [Compound 344]
Ent. A Max Activity (Enteroid Assay A): ++ (++ is 30-60%)
EC50 (Enteroid Assay A): 1000 to 3000 nM

COc1cccc(C2CNC(=O)c3cccc(c3)S(=O)(=O)Nc3nc(cc(-c4c(C)cccc4C)n3)O2)c1 (stereo not shown) [Compound 158]
Ent. A Max Activity (Table 8): +++ (+++ is >60%)
EC50 (Table 8): < 1000 nM

CC(C)C[C@@H]1COc2cc(C3=CCCCC3)nc(n2)NS(=O)(=O)c2cccc(c2)C(=O)N1 [Compound 327]
Ent. A Max Activity (Enteroid Assay A): ++ (++ is 30-60%)
EC50 (Enteroid Assay A): 1000 to 3000 nM

Cc1cccc(C)c1-c1cc2nc(n1)NS(=O)(=O)c1cccc(c1)C(=O)NC(C(=O)NC1CCCCC1)CO2 (stereo not shown) [Compound 237]
Ent. A Max Activity (Table 8): + (+ is <30%)

Cc1cccc(C)c1-c1cc2nc(n1)NS(=O)(=O)c1cc(cc(C3CCCCC3)c1)C(=O)N[C@H](CC(C)C)CO2 [Compound 137]
Ent. A Max Activity (Table 8): + (+ is <30%)

Cc1cccc(C)c1-c1cc2nc(n1)NS(=O)(=O)c1cccc(c1)C(=O)NCC(C13CC4CC(CC(C4)C1)C3)O2 (stereo not shown) [Compound 244]
EC50 (Table 8): < 1000 nM

Cc1ccc(Cc2cccc(C)c2-c2cc3nc(n2)NS(=O)(=O)c2cccc(c2)C(=O)N[C@H](CC(C)C)CO3)cc1 [Compound 394]
Ent. A Max Activity (Table 9): +++ (+++ is >60%)
EC50 (Table 9): < 1000 nM

Cc1cccc(C)c1-c1cc2nc(n1)NS(=O)(=O)c1cccc(c1)C(=O)N[C@@H]1Cc3ccccc3[C@@H]1O2 (stereo in doubt) [Compound 246]
Ent. A Max Activity (Table 8): +++ (+++ is >60%)
EC50 (Table 8): < 1000 nM

Cc1cccc(C)c1-c1cc2nc(n1)NS(=O)(=O)c1cccc(c1)C(=O)NCC1(CCN(C(=O)CC(C)(C)C)CC1)CO2 [Compound 481]
Ent. A Max Activity (Enteroid Assay A): ++ (++ is 30-60%)

COc1cccc(C)c1-c1cc2nc(n1)NS(=O)(=O)c1cccc(c1)C(=O)N[C@H](CC1CCCCC1)CO2 [Compound 303]
Ent. A Max Activity (Table 8): + (+ is <30%)
EC50 (Table 8): < 1000 nM

Cc1cccc(C)c1-c1cc2nc(n1)NS(=O)(=O)c1cccc(c1)C(=O)N[C@@H]1CCN(C3CC4(CCCC4)C3)C[C@H]1O2 (stereo in doubt) [Compound 385]
Ent. A Max Activity (Table 9): + (+ is <30%)
EC50 (Table 9): 3000 to 30000 nM

Cc1cccc(C)c1-c1cc2nc(n1)NS(=O)(=O)c1cccc(c1)C(=O)NC[C@@H](c1ccccn1)O2 [Compound 233]
Ent. A Max Activity (Table 8): + (+ is <30%)

CCCC1(CCC)COc2cc(-c3c(C)cccc3C)nc(n2)NS(=O)(=O)c2cccc(c2)C(=O)N1 [Compound 184]
Ent. A Max Activity (Table 9): +++ (+++ is >60%)
EC50 (Table 9): < 1000 nM

Cc1cccc(C)c1-c1cc2nc(n1)NS(=O)(=O)c1cccc(c1)CN[C@H](CC(C)C)CO2 [Compound 240]
Ent. A Max Activity (Table 9): ++ (++ is 30-60%)
EC50 (Table 9): 3000 to 30000 nM

Cc1cccc(C)c1-c1cc2nc(n1)NS(=O)(=O)c1cccc(c1)C(=O)NCC1(CCN(Cc3sccc3Oc3ccccc3)CC1)CO2 [Compound 83, 6-(2,6-Dimethylphenyl)-2,2-dioxo-1′-[(3-phenoxy-2-thienyl)methyl]spiro[9-oxa-2λ^6-thia-3,5,13,20-tetrazatricyclo[13.3.1.14,8]icosa-1(19),4(20),5,7,15,17-hexaene-11,4′-piperidine]-14-one]
Ent. A Max Activity (Enteroid Assay A): +++ (+++ is >600%)
EC50 (Enteroid Assay A): < 1000 nM

Cc1ccc(C2CNC(=O)c3cccc(c3)S(=O)(=O)Nc3nc(cc(-c4c(C)cccc4C)n3)O2)cc1 (stereo not shown) [Compound 406]
Ent. A Max Activity (Table 8): + (+ is <30%)

Cc1cccc(C)c1-c1cc2nc(n1)NS(=O)(=O)c1cccc(c1)C(=O)NCC(c1ccc(C3CC3)cc1)O2 (stereo not shown) [Compound 268]
Ent. A Max Activity (Table 8): +++ (+++ is >60%)
EC50 (Table 8): < 1000 nM

Cc1cccc(C)c1-c1cc2nc(n1)NS(=O)(=O)c1cccc(c1)C(=O)NCC(c1ccc(C(F)(F)C(F)(F)F)cc1)O2 (stereo not shown) [Compound 22, 6-(2,6-Dimethylphenyl)-2,2-dioxo-10-[4-(1,1,2,2,2-pentafluoroethyl)phenyl]-9-oxa-2λ^6-thia-3,5,12,19-tetrazatricyclo[12.3.1.14,8]nonadeca-1(18),4(19),5,7,14,16-hexaen-13-one]
Ent. A Max Activity (Table 9): +++ (+++ is >60%)
EC50 (Table 9): < 1000 nM

CC(C)C[C@@H]1COc2cc(-n3ccc(OCCC4(C(F)(F)F)CC4)n3)nc(n2)NS(=O)(=O)c2cccc(c2)C(=O)N1 [Compound 306]
Ent. A Max Activity (Table 8): + (+ is <30%)
